Results: PubChem BioAssay AID1918931 (Molecular Pharmacology Branch, DTP, NCI, 2023)
pIC50: −log10 of the molar value. Where “and” joins values, the source holds several entries; their conditions need not be identical. Equal values may be shown once. Each block holds one molecule with its values, some of them ahead of it.

Test system: 138582-337-R-J1-PDC complex spheroid viability
Assay: Anticancer human tumor 138582-337-R-J1-PDC patient-derived Merkel cell tumor cell line growth inhibition
Settings: for viability, T/C: stronger effect = lower value
From the text: Multicellular complex tumor spheroid response to LSD1 Inhibitor Iadademstat in combination with a variety of drugs and investigational agents in selected tumor cell lines
The current study was undertaken to assess response to LSD1 inhibitors in combination with standard-of-care drugs and investigational agents in solid tumor complex spheroid models as well as in the K-562 leukemia. Complex spheroids include a stromal component modeled by human endothelial cells (HUVEC) and fibroblasts modeled by human mesenchymal stem cells (MSCs). The concentration ranges selected for each drug and investigational agent were based upon clinically achievable concentrations if the clinical Cmax of the agent was known.
Compounds. The drugs and investigational agents used in this study are listed on Table 1. All of the agents used, including staurosporine (NSC755774) and gemcitabine (NSC613327), were obtained from the Developmental Therapeutics Program, NCI. FDA-approved anticancer drugs are available from the NCI at http://dtp.nci.nih.gov/branches/dscb/oncology_drugset_explanation.html. Drugs and investigational agents were >95% pure by proton nuclear magnetic resonance (NMR) and liquid chromatography/mass spectrometry (LC/MS). Stock solutions were prepared at 400x in DMSO, stored at -70 degrees C, and diluted in fresh medium prior to their use. The final concentration of DMSO in cell culture wells never exceeded 0.25% (v/v). The FDA-approved anticancer drug set is available from the Developmental Therapeutics Program at https://dtp.cancer.gov/organization/dscb/obtaining/available_plates.htm. All drugs and investigational agents were tested over a range starting from a high concentration at or near the clinical Cmax and decreasing in half-log increments. If the clinical Cmax for an agent had not been determined, the highest concentration tested was 10 microM.
Cell Lines. The patient-derived cancer cell (PDC) lines: 292921-168-R-J2-PDC, K24384-001-R-PDC, and 521955-158-R2-J5-PDC pancreatic carcinomas, 556581-035-R-J1 ovarian carcinoma, 324938-238-R-J1-PDC, 855422-203-R-J1-PDC and 883617-216-R-J1-PDC urothelial bladder carcinomas, 743489-274-T-PDC renal cell carcinoma, 138582-R-J1 Merkel cell tumor, K60290-347-R-J1 and K57222-313-R-J1-PDC glioblastomas, 653999-131-R-J2-PDC, LG0703-F948-PDC, and 349418-098-R-PDC non-small cell lung carcinomas, 885512-296-R-J2-PDC, 171881-019-R-J1-PDC breast carcinomas and 186277-243-T-J2-PDC and 233499-124-R-J2-PDC colon carcinomas were obtained from the NCI Patient-Derived Models Repository (PDMR, https://pdmr.cancer.gov). The established cell lines NCI/ADR-RES (RRID:CVCL_14520 and OVCAR-5 (RRID:CVCL_1628) ovarian carcinomas, 786-O (RRID:CVCL_1051) and A498 (RRID:CVCL_A498) renal cell carcinoma, NCI-H211 (ATCC, cat. CRL-5824; RRID:CVCL_1529), NCI-H196 (ATCC, cat. CRL-5823, RRID:CVCL_1509), SW 1271 (ATCC, cat. CRL-2177, RRID:CVCL_1716) and NCI-H1876 (ATCC, cat. CRL-5902, RRID:CVCL_1503) small cell lung carcinomas, MDA-MB-231 (RRID:CVCL_0062) and MDA-MB-468 (RRID:CVCL_0419)breast carcinomas (10-12). Pooled donor human umbilical vein endothelial cells (HUVEC, Lonza, cat. CC-2519) and human mesenchymal stem cells (hMSC, Lonza, cat. PT-2501) were purchased from Lonza (Walkersville, MD).
Cell Culture. All cells were maintained in an incubator at 37 degrees C and 5% CO2 with 95% humidity. The PDC lines were cultured according to standard operating procedures established by the NCI PDMR (https://pdmr.cancer.gov). Briefly all PDCs were thawed and cultured in Matrigel-coated flasks prepared with a working solution of 1X Ham's F-12 nutrient mix, without supplementation (Invitrogen, Waltham, MA, cat. 11765054), 100 U/mL penicillin-streptomycin (Invitrogen, cat. 15140122), and 2.5% Matrigel (Corning Inc., Corning, NY, cat. 354248) for the first three passages. […]
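Further: spheroids exposed to agents for 7 days.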
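Wherever viability, T/C is given: 100% = DMSO vehicle control viability.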

- pIC50 (curve of compound): 5.87 and 5.57
SMILES: COc1ccc([C@@H](O)c2cc(-c3ncnc4cc(N5CCOCC5)ccc34)c(F)cc2Cl)nn1
- viability, T/C (compound 0.0316 µM): 92.5% and 76.9%
- viability, T/C (compound 0.1 µM): 79.5% and 91.7%
- viability, T/C (compound 0.316 µM): 64.9% and 66.6%
- viability, T/C (compound 1 µM): 50.7% and 71.1%
- viability, T/C (compound 3.16 µM): 45.5% and 46%
- viability, T/C (compound 10 µM): 27.3% and 20.6%

- pIC50 (curve of compound): < 7.00
SMILES: Cn1ncnc1C1c2n[nH]c(=O)c3cc(F)cc(c23)NC1c1ccc(F)cc1 (stereo not drawn)
- viability, T/C (compound 0.000316 µM): 96.7% and 103%
- viability, T/C (compound 0.001 µM): 93.5% and 95.9%
- viability, T/C (compound 0.00316 µM): 83.5% and 99.5%
- viability, T/C (compound 0.01 µM): 86.7% and 92.9%
- viability, T/C (compound 0.0316 µM): 94.4% and 70.4%
- viability, T/C (compound 0.1 µM): 91.1% and 67.1%

- pIC50 (compound alone, run of 02/01/2022): < 5.00
SMILES: NC1CC1c1ccc(-c2cccc(O)c2)cc1 (stereo not drawn)
- viability, T/C (compound 0.1 µM): 75.3%

- pIC50 (compound alone, run of 01/24/2022): < 5.00
SMILES: NC1CCC(NC2CC2c2ccccc2)CC1 (stereo not drawn)
- viability, T/C (compound 0.316 µM): 95.6% and 95.3%

- pIC50 (curve of compound): 6.30 and 7.09
SMILES: NS(=O)(=O)OCC1CC(n2ccc3c(NC4CCc5ccccc54)ncnc32)CC1O (stereo not drawn)
- viability, T/C (compound 0.00949 µM): 96% and 74.9%
- viability, T/C (compound 0.03 µM): 104% and 63.2%
- viability, T/C (compound 0.0949 µM): 93.9% and 50.6%
- viability, T/C (compound 0.3 µM): 67.3% and 30.4%
- viability, T/C (compound 0.949 µM): 28% and 26.4%
- viability, T/C (compound 3 µM): 27.5% and 32.5%

- pIC50 (curve of compound): 5.94 and 6.55
SMILES: Nc1ccccc1NC(=O)c1ccc(CNC(=O)OCc2cccnc2)cc1
- viability, T/C (compound 0.00949 µM): 96.2% and 67%
- viability, T/C (compound 0.03 µM): 93.9% and 66.7%
- viability, T/C (compound 0.0949 µM): 86.3% and 61.3%
- viability, T/C (compound 0.3 µM): 80.7% and 49.9%
- viability, T/C (compound 0.949 µM): 61.3% and 13.2%
- viability, T/C (compound 3 µM): 4.61% and 0.47%

- pIC50 (curve of compound): < 6.52
SMILES: Nc1ccn(C2OC(CO)C(O)C2(F)F)c(=O)n1 (stereo not drawn)
- viability, T/C (compound 0.000949 µM): 80.2% and 102%
- viability, T/C (compound 0.003 µM): 94.3% and 100%
- viability, T/C (compound 0.00949 µM): 86.5% and 77.4%
- viability, T/C (compound 0.03 µM): 82.4% and 55.1%
- viability, T/C (compound 0.0949 µM): 80% and 59.3%
- viability, T/C (compound 0.3 µM): 112% and 53.6%

- pIC50 (curve of compound): < 6.00
SMILES: Nc1ncn(C2CC(O)C(CO)O2)c(=O)n1 (stereo not drawn)
- viability, T/C (compound 0.00316 µM): 102% and 109%
- viability, T/C (compound 0.01 µM): 78.7% and 124%
- viability, T/C (compound 0.0316 µM): 90% and 123%
- viability, T/C (compound 0.1 µM): 83.7% and 111%
- viability, T/C (compound 0.316 µM): 112% and 122%
- viability, T/C (compound 1 µM): 112% and 91.2%

- pIC50 (curve of compound): < 6.52
SMILES: Nc1ncn(C2CC(O)C(CO)S2)c(=O)n1 (stereo not drawn)
- viability, T/C (compound 0.000949 µM): 96.8% and 93.8%
- viability, T/C (compound 0.003 µM): 82.8% and 110%
- viability, T/C (compound 0.00949 µM): 87.8% and 94.3%
- viability, T/C (compound 0.03 µM): 94.6% and 92.3%
- viability, T/C (compound 0.0949 µM): 91.3% and 93.4%
- viability, T/C (compound 0.3 µM): 80.5% and 74.7%

- pIC50 (curve of compound): 6.21 and 7.07
SMILES: O=C(C=Cc1cccc(S(=O)(=O)Nc2ccccc2)c1)NO
- viability, T/C (compound 0.00949 µM): 96.1% and 76.4%
- viability, T/C (compound 0.03 µM): 91.5% and 67.6%
- viability, T/C (compound 0.0949 µM): 90% and 49.2%
- viability, T/C (compound 0.3 µM): 73.3% and 23.6%
- viability, T/C (compound 0.949 µM): 36% and 0.96%

- pIC50 (curve of compound): 8.00 and 7.89
SMILES: O=C(C=Cn1cnc(-c2cc(C(F)(F)F)cc(C(F)(F)F)c2)n1)NNc1cnccn1
- viability, T/C (compound 0.00316 µM): 79.5% and 60.6%
- viability, T/C (compound 0.01 µM): 49.6% and 56.1%
- viability, T/C (compound 0.0316 µM): 24.6% and 29.2%
- viability, T/C (compound 0.1 µM): 15.6% and 17.7%
- viability, T/C (compound 0.316 µM): 18.6% and 17.6%
- viability, T/C (compound 1 µM): 16.4% and 15.4%

- pIC50 (curve of compound): < 5.00
SMILES: O=C(c1cc(Cc2n[nH]c(=O)c3ccccc23)ccc1F)N1CCN(C(=O)C2CC2)CC1
- viability, T/C (compound 0.0316 µM): 106% and 90%
- viability, T/C (compound 0.1 µM): 71.7% and 93.4%
- viability, T/C (compound 0.316 µM): 96.6% and 98.8%
- viability, T/C (compound 1 µM): 83.5% and 71.4%
- viability, T/C (compound 3.16 µM): 78% and 57.2%
- viability, T/C (compound 10 µM): 82.9% and 63.8%
